Measurements reported in patent US9067881B2, “4-tolyl-ethynyl-octahydro-indole-1-ester derivatives” (NOVARTIS AG, priority 2011, dated 2015).
Converted amounts (≈) assume the structure as drawn.

Assay: Solubility in Cl free phosphate buffer pH 6.8
Format: physicochemical
Conditions: aqueous buffer; Cl free phosphate buffer (0.067 M) pH 6.8

SMILES | solubility
COC(=O)N1CC[C@@H]2[C@H]1CCC[C@]2(C#Cc1cccc(C)c1)OC(=O)CC(N)=O [Example 60, (3aR,4S,7aR)-methyl 4-(3-amino-3-oxopropanoyloxy)-4-(nm-tolylethynyl)octahydro-1H-indole-1-carboxylate] | 110 µg/mL (≈ 276 µM)
COC(=O)N1CC[C@@H]2[C@H]1CCC[C@]2(C#Cc1cccc(C)c1)OC(C)=O [Example 13, (3aR,4S,7aR)-4-Acetoxy-4-m-tolylethynyl-octahydro-indole-1-carboxylic acid methyl ester] | 12 µg/mL (≈ 33.8 µM)
COC(=O)N1CC[C@@H]2[C@H]1CCC[C@]2(C#Cc1cccc(C)c1)OC(=O)CCC(=O)N(C)C [Example 59, (3aR,4S,7aR)-methyl 4-(4-(dimethylamino)-4-oxobutanoyloxy)-4-(m-tolylethynyl)octa hydro-1H-indole-1-carboxylate] | < 2 µg/mL
COC(=O)CCC(=O)O[C@@]1(C#Cc2cccc(C)c2)CCC[C@@H]2[C@H]1CCN2C(=O)OC [Example 62, ((3aR,4S,7aR)-1-(methoxycarbonyl)-4-(m-tolylethynyl)octahydro-1H-indol-4-ylmethyl succinate] | 164 µg/mL
COC(=O)N1CC[C@@H]2[C@H]1CCC[C@]2(C#Cc1cccc(C)c1)OC(=O)CCCC(=O)NC(C)C [Example 69, (3aR,4S,7aR)-methyl 4-(5-(isopropylamino)-5-oxopentanoyloxy)-4-(m-tolylethynyl)octahydro-1H-indole-1-carboxylate] | 28 µg/mL (≈ 59.8 µM)
COCC(=O)O[C@@]1(C#Cc2cccc(C)c2)CCC[C@@H]2[C@H]1CCN2C(=O)OC [Example 10, (3aR,4S,7aR)-4-(2-Methoxy-acetoxy)-4-m-tolylethynyl-octahydro-indole-1-carboxylic acid methyl ester] | 47 µg/mL (≈ 122 µM)
COC(=O)CC(=O)O[C@@]1(C#Cc2cccc(C)c2)CCC[C@@H]2[C@H]1CCN2C(=O)OC [Example 66, (3aR,4S,7aR)-1-(methoxycarbonyl)-4-(m-tolylethynyl)octahydro-1H-indol-4-yl methyl malonate] | 100 µg/mL (≈ 242 µM)
COC(=O)N1CC[C@@H]2[C@H]1CCC[C@]2(C#Cc1cccc(C)c1)OC(=O)CCC(=O)N1CCCC1 [Example 38, (3aR,4S,7aR)-4-(4-Oxo-4-pyrrolidin-1-yl-butyryloxy)-4-m-tolylethynyl-octahydro-indole-1-carboxylic acid methyl ester] | 27 µg/mL (≈ 57.9 µM)
CNC(=O)CC(=O)O[C@@]1(C#Cc2cccc(C)c2)CCC[C@@H]2[C@H]1CCN2C(=O)OC [Example 61, (3aR,4S,7aR)-methyl 4-(3-(methylamino)-3-oxopropanoyloxy)-4-(m-tolylethynyl)octahydro-1H-indole-1-carboxylate] | 11 µg/mL (≈ 26.7 µM)

The next lines start with the values.

solubility | SMILES
2 µg/mL (≈ 5.22 µM) | CCCC(=O)O[C@@]1(C#Cc2cccc(C)c2)CCC[C@@H]2[C@H]1CCN2C(=O)OC [Example 15, (3aR,4S,7aR)-4-Butyryloxy-4-m-tolylethynyl-octahydro-indole-1-carboxylic acid methyl ester]
97 µg/mL (≈ 220 µM) | COC(=O)CCCC(=O)O[C@@]1(C#Cc2cccc(C)c2)CCC[C@@H]2[C@H]1CCN2C(=O)OC [Example 56, (3aR,4S,7aR)-1-(methoxycarbonyl)-4-(m-tolylethynyl)octahydro-1H-indol-4-yl methyl glutarate]
33 µg/mL (≈ 72.6 µM) | CCCNC(=O)CCC(=O)O[C@@]1(C#Cc2cccc(C)c2)CCC[C@@H]2[C@H]1CCN2C(=O)OC [Example 64, (3aR,4S,7aR)-methyl 4-(4-oxo-4-(propylamino)butanoyloxy)-4-(m-tolylethynyl)octahydro-1H-indole-1-carboxylate]
< 2 µg/mL | CCCCC(=O)O[C@@]1(C#Cc2cccc(C)c2)CCC[C@@H]2[C@H]1CCN2C(=O)OC [Example 22, (3aR,4S,7aR)-4-Pentanoyloxy-4-m-tolylethynyl-octahydro-indole-1-carboxylic acid methyl ester]
< 2 µg/mL | CCCCCC(=O)O[C@@]1(C#Cc2cccc(C)c2)CCC[C@@H]2[C@H]1CCN2C(=O)OC [Example 17, (3aR,4S,7aR)-4-Hexanoyloxy-4-m-tolylethynyl-octahydro-indole-1-carboxylic acid methyl ester]
< 2 µg/mL | CCCCCCCC(=O)O[C@@]1(C#Cc2cccc(C)c2)CCC[C@@H]2[C@H]1CCN2C(=O)OC [Example 18]
87 µg/mL (≈ 204 µM) | CNC(=O)CCC(=O)O[C@@]1(C#Cc2cccc(C)c2)CCC[C@@H]2[C@H]1CCN2C(=O)OC [Example 58, (3aR,4S,7aR)-methyl 4-(4-(methylamino)-4-oxobutanoyloxy)-4-(m-tolylethynyl)octahydro-1H-indole-1-carboxylate]
386 µg/mL (≈ 849 µM) | CCNC(=O)CCCC(=O)O[C@@]1(C#Cc2cccc(C)c2)CCC[C@@H]2[C@H]1CCN2C(=O)OC [Example 68, (3aR,4S,7aR)-methyl 4-(5-(ethylamino)-5-oxopentanoyloxy)-4-(m-tolylethynyl)octahydro-1H-indole-1-carboxylate]
123 µg/mL (≈ 279 µM) | CCNC(=O)CCC(=O)O[C@@]1(C#Cc2cccc(C)c2)CCC[C@@H]2[C@H]1CCN2C(=O)OC [Example 67, (3aR,4S,7aR)-methyl 4-(4-(ethylamino)-4-oxobutanoyloxy)-4-(m-tolylethynyl)octahydro-1H-indole-1-carboxylate]
19 µg/mL (≈ 40.5 µM) | CCN(CC)C(=O)CCC(=O)O[C@@]1(C#Cc2cccc(C)c2)CCC[C@@H]2[C@H]1CCN2C(=O)OC [Example 57, (3aR,4S,7aR)-methyl 4-(4-(diethylamino)-4-oxobutanoyloxy)-4-(m-tolylethynyl)octahydro-1H-indole-1-carboxylate]
93 µg/mL (≈ 218 µM) | COC(=O)N1CC[C@@H]2[C@H]1CCC[C@]2(C#Cc1cccc(C)c1)OC(=O)CCCC(N)=O [Example 55, (3aR,4S,7aR)-methyl 4-(5-amino-5-oxopentanoyloxy)-4-(m-tolylethynyl)octahydro-1H-indole-1-carboxylate]
32 µg/mL (≈ 68.3 µM) | CCCNC(=O)CCCC(=O)O[C@@]1(C#Cc2cccc(C)c2)CCC[C@@H]2[C@H]1CCN2C(=O)OC [Example 70, (3aR,4S,7aR)-methyl 4-(5-oxo-5-(propylamino)pentanoyloxy)-4-(m-tolylethynyl)octahydro-1H-indole-1-carboxylate]

Assay: In-vitro clearance in rat liver microsomes (metabolic stability, compound depletion)
Conditions: not given

microsomal CLint at 1 μM | SMILES
420 µL/min/mg | CCC[C@H](N)C(=O)O[C@@]1(C#Cc2cccc(C)c2)CCC[C@@H]2[C@H]1CCN2C(=O)OC [Example 32, (3aR,4S,7aR)-4-((S)-2-Amino-pentanoyloxy)-4-m-tolylethynyl-octahydro-indole-1-carboxylic acid methyl ester]
495 µL/min/mg | COC(=O)N1CC[C@@H]2[C@H]1CCC[C@]2(C#Cc1cccc(C)c1)OC(=O)[C@@H](N)CC(C)(C)C [Example 34, (3aR,4S,7aR)-4-((S)-2-Amino-4,4-dimethyl-pentanoyloxy)-4-m-tolylethynyl-octahydro-indole-1-carboxylic acid methyl ester]
26 µL/min/mg | COC(=O)N1CC[C@@H]2[C@H]1CCC[C@]2(C#Cc1cccc(C)c1)OC(=O)c1ccc(Br)cc1 [Example 48, (3aR,4S,7aR)-methyl 4-(4-bromobenzoyloxy)-4-(m-tolylethynyl)octahydro-1H-indole-1-carboxylate]
